Laboratory results reported in ChEMBL document CHEMBL5465560, “Selectivity Literature for EUbOPEN Chemogenomic Library” (2024).

Assays:
[1] = target: Cyclin-dependent kinase 5 (Homo sapiens, UniProt Q00535); assay: Selectivity interaction (LanthaScreen Eu Kinase Binding Assay) EUB0001632a CDK5; settings: at 10 µM
[2] = target: Activated CDC42 kinase 1 (Homo sapiens, UniProt Q07912); assay: Selectivity interaction (KinomeScan (DiscoverX)) EUB0000666a TNK2; settings: at 10 µM
[3] = target: T1, Mitogen-activated protein kinase 12 (Homo sapiens) (UniProt P53778); assay: Selectivity interaction (SelectScreen profiling (Invitrogen)) EUB0000607a MAPK12; settings: at 2 µM
T1 sequence (whole entry): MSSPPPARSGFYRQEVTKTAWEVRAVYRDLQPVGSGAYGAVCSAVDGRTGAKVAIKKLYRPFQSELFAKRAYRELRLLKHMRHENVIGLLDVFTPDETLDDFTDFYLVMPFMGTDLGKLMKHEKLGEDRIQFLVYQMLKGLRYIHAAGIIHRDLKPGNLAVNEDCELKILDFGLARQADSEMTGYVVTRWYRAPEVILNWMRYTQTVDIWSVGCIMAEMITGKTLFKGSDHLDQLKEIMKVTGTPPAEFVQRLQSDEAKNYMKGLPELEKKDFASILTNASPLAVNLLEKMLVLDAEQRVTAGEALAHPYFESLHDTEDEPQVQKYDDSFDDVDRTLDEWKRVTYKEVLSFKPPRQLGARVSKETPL

[4] = target: Cyclin-dependent kinase 9 (Homo sapiens, UniProt P50750); assay: Selectivity interaction (KinomeScan (DiscoverX)) EUB0000607a CDK9; settings: at 10 µM
[5] = target: Serine/threonine-protein kinase pim-1 (Homo sapiens, UniProt P11309); assay: Selectivity interaction (SelectScreen profiling (Invitrogen)) EUB0000607a PIM1; settings: at 2 µM
[6] = target: Ribosomal protein S6 kinase alpha-1 (Homo sapiens, UniProt Q15418); assay: Selectivity interaction (ActivX KiNativ screen (kinase selectivity in THP-1 cell lysates)) EUB0000639a RPS6KA1; format: subcellular; settings: lysate, at 1 µM
[7] = target: T2, Interleukin-1 receptor-associated kinase 4 (Homo sapiens) (UniProt Q9NWZ3); assay: Selectivity interaction (ProQinase) EUB0000171b IRAK4
T2 sequence (whole entry): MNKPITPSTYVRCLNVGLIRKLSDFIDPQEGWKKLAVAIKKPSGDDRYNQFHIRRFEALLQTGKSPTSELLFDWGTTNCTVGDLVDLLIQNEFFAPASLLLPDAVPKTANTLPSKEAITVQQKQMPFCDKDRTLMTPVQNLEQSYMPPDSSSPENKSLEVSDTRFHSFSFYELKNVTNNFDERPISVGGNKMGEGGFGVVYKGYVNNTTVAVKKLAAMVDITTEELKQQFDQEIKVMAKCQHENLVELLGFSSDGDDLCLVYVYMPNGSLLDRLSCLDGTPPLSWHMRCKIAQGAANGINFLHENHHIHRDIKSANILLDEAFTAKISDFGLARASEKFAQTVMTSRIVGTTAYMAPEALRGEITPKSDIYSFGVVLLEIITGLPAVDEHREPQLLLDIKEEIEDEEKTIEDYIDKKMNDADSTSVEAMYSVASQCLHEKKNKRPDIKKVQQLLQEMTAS

[8] = target: T3, Peripheral plasma membrane protein CASK (Homo sapiens) (UniProt O14936); assay: Selectivity interaction (Kinase panel (DSF assay)) EUB0001559a CASK
T3 sequence (whole entry): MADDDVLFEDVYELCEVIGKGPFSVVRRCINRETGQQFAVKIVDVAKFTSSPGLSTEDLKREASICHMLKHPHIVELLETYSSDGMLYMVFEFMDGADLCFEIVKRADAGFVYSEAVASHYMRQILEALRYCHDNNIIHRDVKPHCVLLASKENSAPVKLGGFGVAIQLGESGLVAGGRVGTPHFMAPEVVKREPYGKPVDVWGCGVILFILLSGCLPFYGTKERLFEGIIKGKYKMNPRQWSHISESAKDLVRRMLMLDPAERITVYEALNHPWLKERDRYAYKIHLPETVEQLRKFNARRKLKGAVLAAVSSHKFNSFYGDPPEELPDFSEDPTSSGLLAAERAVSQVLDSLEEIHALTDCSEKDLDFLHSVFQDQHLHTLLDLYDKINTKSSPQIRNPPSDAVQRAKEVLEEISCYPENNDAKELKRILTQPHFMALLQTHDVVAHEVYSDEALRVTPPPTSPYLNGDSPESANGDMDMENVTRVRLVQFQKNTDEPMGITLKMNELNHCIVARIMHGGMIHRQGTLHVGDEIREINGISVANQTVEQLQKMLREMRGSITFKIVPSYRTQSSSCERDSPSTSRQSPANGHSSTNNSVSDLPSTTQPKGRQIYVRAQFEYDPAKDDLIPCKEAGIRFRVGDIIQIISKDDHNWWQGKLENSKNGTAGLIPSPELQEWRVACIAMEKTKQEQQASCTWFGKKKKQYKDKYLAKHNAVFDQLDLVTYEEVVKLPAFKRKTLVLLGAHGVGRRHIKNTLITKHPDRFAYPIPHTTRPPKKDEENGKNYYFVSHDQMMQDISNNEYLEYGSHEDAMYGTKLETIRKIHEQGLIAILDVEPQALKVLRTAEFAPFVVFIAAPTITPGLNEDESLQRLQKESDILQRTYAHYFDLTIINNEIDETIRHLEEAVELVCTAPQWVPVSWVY

[9] = target: Mitogen-activated protein kinase 8 (Homo sapiens, UniProt P45983); assay: Selectivity interaction (KinomeScan (DiscoverX)) EUB0000655a MAPK8; settings: at 10 µM
[10] = target: Platelet-derived growth factor receptor alpha (Homo sapiens, UniProt P16234); assay: Selectivity interaction (KinomeScan (DiscoverX)) EUB0000655a PDGFRA; settings: at 10 µM
[11] = target: Serine/threonine-protein kinase PLK1 (Homo sapiens, UniProt P53350); assay: Selectivity interaction (KinomeScan (DiscoverX)) EUB0000229b PLK1; settings: at 10 µM
[12] = target: Serine/threonine-protein kinase PAK 6 (Homo sapiens) (UniProt Q9NQU5); assay: Selectivity interaction (KinomeScan (DiscoverX)) EUB0000092b PAK6; settings: at 10 µM
[13] = tested on: Epidermal growth factor receptor (Homo sapiens), P00533 [L858R]; settings: at 10 µM
[14] = target: Mitogen-activated protein kinase kinase kinase kinase 5 (Homo sapiens) (UniProt Q9Y4K4); assay: Selectivity interaction (KinomeScan (DiscoverX)) EUB0000618a MAP4K5; settings: at 10 µM

Chain of Cyclin-dependent kinase 9 (P50750 whole entry): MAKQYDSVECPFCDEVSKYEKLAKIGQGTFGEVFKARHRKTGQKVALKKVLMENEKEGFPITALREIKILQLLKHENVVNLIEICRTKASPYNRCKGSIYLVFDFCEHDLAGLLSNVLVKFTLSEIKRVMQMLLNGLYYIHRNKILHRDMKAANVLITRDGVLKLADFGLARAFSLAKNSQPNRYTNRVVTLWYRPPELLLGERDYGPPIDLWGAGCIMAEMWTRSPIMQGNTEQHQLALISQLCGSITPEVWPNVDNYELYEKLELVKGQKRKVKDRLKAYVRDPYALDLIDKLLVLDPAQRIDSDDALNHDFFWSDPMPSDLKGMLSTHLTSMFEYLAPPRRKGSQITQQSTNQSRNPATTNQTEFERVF
Chain of Serine/threonine-protein kinase PLK1 (P53350 whole entry): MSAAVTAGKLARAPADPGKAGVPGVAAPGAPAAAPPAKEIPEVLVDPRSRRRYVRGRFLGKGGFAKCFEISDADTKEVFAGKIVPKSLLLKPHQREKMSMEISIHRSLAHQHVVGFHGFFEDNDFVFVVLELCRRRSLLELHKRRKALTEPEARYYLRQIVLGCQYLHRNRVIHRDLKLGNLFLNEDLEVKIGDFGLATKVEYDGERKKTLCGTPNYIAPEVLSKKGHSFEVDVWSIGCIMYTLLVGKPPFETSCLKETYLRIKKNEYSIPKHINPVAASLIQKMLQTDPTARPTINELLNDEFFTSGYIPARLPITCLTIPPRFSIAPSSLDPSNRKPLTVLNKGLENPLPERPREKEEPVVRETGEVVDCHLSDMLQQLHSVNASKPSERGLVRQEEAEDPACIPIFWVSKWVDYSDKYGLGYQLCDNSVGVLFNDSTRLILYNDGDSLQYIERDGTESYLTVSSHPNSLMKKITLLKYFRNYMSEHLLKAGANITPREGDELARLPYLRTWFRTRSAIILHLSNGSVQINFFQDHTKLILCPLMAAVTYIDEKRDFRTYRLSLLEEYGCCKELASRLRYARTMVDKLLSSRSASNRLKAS
Chain of Cyclin-dependent kinase 5 (Q00535 whole entry, looked up): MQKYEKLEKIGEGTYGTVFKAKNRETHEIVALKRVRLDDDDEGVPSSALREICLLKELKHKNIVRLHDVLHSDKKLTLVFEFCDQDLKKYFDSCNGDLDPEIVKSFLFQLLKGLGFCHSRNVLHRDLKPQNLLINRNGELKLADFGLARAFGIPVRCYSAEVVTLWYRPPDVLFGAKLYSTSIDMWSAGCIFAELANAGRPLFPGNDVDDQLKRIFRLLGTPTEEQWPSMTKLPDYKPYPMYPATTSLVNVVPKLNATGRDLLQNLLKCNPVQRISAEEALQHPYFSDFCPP
Chain of Serine/threonine-protein kinase PAK 6 (Homo sapiens) (Q9NQU5 whole entry, looked up): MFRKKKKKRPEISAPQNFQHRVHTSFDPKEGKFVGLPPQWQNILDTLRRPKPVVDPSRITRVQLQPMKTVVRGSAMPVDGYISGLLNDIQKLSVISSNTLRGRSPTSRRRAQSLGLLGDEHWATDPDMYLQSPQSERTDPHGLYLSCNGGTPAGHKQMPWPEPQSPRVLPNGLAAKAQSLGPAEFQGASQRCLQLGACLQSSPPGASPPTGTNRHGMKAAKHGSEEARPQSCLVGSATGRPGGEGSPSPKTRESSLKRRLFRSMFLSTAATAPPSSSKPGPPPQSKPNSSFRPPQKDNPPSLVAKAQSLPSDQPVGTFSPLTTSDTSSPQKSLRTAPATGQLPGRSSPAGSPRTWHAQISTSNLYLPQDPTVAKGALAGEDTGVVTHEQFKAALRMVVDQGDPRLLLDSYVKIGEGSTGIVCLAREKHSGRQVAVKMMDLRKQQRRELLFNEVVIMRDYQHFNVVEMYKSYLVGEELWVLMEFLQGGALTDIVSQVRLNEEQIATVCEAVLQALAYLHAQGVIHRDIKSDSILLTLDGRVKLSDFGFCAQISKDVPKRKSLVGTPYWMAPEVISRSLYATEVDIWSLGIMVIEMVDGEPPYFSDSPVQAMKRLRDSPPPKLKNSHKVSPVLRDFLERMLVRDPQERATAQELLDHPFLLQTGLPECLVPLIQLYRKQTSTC
Chain of Serine/threonine-protein kinase pim-1 (P11309 whole entry, looked up): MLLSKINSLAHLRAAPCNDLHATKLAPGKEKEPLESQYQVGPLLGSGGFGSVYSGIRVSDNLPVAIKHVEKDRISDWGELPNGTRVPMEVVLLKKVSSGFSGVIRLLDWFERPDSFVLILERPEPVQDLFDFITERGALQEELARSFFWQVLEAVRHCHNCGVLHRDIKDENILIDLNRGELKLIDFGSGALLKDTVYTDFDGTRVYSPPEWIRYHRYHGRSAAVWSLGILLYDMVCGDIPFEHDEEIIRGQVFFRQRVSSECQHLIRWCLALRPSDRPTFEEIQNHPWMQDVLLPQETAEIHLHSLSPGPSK
Chain of Epidermal growth factor receptor (Homo sapiens), P00533 [L858R] (P00533 whole entry L858R): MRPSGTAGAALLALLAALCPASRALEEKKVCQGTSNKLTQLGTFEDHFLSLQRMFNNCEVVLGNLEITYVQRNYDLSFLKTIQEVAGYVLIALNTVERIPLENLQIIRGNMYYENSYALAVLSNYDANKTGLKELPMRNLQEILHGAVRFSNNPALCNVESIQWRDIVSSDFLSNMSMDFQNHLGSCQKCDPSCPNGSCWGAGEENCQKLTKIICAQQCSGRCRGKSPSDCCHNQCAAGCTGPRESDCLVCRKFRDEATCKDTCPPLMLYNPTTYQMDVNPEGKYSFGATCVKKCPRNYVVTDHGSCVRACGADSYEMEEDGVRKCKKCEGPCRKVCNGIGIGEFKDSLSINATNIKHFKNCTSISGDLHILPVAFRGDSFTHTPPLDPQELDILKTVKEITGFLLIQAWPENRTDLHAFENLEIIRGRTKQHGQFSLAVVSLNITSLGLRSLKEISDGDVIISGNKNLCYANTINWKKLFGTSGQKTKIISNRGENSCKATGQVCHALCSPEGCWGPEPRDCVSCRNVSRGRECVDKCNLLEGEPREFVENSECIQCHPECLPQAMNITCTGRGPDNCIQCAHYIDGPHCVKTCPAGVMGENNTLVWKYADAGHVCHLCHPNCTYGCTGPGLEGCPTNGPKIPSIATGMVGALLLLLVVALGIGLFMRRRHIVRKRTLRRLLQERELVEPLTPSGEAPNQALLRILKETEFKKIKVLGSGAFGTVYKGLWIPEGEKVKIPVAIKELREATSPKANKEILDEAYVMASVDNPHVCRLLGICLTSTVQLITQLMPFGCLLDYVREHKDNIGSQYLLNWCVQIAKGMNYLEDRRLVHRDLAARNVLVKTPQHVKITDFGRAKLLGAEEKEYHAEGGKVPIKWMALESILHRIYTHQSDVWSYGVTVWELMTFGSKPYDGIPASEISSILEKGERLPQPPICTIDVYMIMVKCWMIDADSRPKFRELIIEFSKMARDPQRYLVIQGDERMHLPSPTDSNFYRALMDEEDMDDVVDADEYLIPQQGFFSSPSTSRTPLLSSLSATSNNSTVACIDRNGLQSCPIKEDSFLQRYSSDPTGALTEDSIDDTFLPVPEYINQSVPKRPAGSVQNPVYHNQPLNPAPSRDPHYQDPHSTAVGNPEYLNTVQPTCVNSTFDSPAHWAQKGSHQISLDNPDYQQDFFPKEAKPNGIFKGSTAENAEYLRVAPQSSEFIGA
Chain of Activated CDC42 kinase 1 (Q07912 whole entry, looked up): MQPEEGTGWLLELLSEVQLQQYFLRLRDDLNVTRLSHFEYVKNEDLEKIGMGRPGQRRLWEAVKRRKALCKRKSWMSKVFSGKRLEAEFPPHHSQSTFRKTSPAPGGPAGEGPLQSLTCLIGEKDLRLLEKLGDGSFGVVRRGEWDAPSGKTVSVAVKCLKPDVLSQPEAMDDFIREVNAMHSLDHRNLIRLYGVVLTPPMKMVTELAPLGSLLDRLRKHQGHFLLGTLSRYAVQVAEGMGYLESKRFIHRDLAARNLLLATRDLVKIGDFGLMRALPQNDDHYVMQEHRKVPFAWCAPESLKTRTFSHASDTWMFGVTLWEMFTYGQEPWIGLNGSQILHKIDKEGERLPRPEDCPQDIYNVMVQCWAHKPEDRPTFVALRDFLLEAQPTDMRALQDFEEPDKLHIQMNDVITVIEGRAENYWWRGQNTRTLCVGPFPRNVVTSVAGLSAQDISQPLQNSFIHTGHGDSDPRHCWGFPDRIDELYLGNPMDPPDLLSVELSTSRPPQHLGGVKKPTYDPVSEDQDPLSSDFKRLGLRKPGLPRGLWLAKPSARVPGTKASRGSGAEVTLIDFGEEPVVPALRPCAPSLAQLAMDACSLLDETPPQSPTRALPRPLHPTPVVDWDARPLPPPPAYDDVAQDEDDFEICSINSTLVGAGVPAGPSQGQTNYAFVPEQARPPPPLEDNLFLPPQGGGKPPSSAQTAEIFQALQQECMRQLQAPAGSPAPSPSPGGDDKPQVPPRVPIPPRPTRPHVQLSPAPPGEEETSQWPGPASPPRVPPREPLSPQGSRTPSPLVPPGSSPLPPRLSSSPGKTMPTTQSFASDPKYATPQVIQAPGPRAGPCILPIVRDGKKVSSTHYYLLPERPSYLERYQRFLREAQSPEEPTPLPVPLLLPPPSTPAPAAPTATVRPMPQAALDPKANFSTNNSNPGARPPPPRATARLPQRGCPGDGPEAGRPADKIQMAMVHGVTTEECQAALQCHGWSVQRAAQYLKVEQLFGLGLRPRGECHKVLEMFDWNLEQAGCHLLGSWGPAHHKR
Chain of Mitogen-activated protein kinase 8 (P45983 whole entry): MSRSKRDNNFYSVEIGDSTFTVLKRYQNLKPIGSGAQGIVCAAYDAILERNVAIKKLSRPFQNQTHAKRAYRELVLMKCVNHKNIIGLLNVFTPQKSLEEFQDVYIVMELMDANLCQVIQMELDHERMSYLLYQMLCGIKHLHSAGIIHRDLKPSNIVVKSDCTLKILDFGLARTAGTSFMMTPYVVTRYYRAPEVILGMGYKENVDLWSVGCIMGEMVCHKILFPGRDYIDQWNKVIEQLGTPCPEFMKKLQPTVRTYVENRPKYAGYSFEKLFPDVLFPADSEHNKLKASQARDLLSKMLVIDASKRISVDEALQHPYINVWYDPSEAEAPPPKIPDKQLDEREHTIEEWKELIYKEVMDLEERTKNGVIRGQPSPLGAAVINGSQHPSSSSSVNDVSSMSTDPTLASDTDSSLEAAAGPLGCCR

Cn1cc(-n2cnc3c(NCc4nc5cc(Cl)c(Cl)cc5[nH]4)nc(N4CCOCC4)nc32)cn1
% of inhibition [1]: -96.6%

O=C(NOC[C@H](O)CO)c1ccc(F)c(F)c1Nc1ccc(I)cc1F
% of control [2]: 72%

CNC(=O)Nc1ccc(-c2nc(N3CC4CCC(C3)O4)c3cnn(C4CCC5(CC4)OCCO5)c3n2)cc1
% of inhibition [3]: -2%
% of control [4]: 100%
% of inhibition [5]: 1%

CC[C@@H]1[C@H](F)C(=O)N[C@@H]1COc1nccc2cc(C(N)=O)c(OC)cc12 [ZIMLOVISERTIB]
% of inhibition [6]: -1%

C=CC(=O)Nc1cccc(C(=O)Nc2ccc(Nc3cc(-c4[nH]c(SC)nc4C)ccn3)cc2)c1
% of control ([7]; at 1 µM): 85%
% of control ([7]; at 5 µM): 56%

CN(C(=O)c1cnn2cccnc12)c1cc2c(cc1N1CCOCC1)C(=O)N(C[C@@H](F)C(C)(C)O)C2
dTM [8]: 0 K

CN(C)CCOc1ccc(-c2nc(-c3ccncc3)c(-c3ccc4c(c3)CC/C4=N\O)[nH]2)cc1
% of control [9]: 92%
% of control [10]: 100%

COc1cc(N(C)c2ccnc3ccc(C(F)(F)F)cc23)cc(OC)c1OC
% binding [11]: 100%

CCC(=O)N1CCN(c2ccc(-n3c(=O)ccc4cnc5ccc(-c6cnc7ccccc7c6)cc5c43)cc2C(F)(F)F)CC1
% of control [12]: 87%

Cc1cc([C@@H](C)Nc2ccccc2C(=O)O)c2nc(N3CCOCC3)cc(=O)n2c1 [AZD-6482]
% of control [13]: 100%

O[C@H]1CC[C@H](Nc2ncc3nc(Nc4c(F)cc(F)cc4F)n([C@H]4CCOC4)c3n2)CC1
% of control [14]: 100%
